pIC50: −log10 of the molar value.
What was measured:
Experiment in all cases: Sulforhodamine-B
Assay type in all cases: cell-based
[1] = system: MCF7 breast cancer cell line; details: Homo sapiens, MCF7, read-out: IC50 anticancer evaluation MCF
[2] = system: MIA-PA-CA-2 pancreatic cancer cell line; details: Homo sapiens, MIA PaCa-2, read-out: IC50 anticancer evaluation Miapaca-2
[3] = system: HOP62 lung cancer cell line; details: Homo sapiens, HOP-62, read-out: IC50 anticancer evaluation Hop62
[4] = system: HT29 colon cancer cell line; details: Homo sapiens, HT-29, read-out: IC50 anticancer evaluation HT29
[5] = system: Colo205 colon cancer cell line; details: Homo sapiens, COLO 205, read-out: IC50 anticancer evaluation Colo205

Measured: pIC50

COc1cccc2c1C(=O)c1c(O)c3c(c(O)c1C2=O)C[C@@](O)(C(=O)CO)C[C@@H]3O[C@H]1C[C@H](N)[C@H](O)[C@H](C)O1 [Adriamycin]
> 4.82: all assays above
